# From patent US9616037B2, “Aryl-phenyl-sulfonamido-cycloalkyl compounds and their use” (PIMCO 2664 Limited, priority 2008, dated 2017)
# Tests used:
# [1] = test system: J774 macrophages; assay: Alamar Blue macrophage J774 viability assay; type: cell-based; settings: Mus musculus; J774 cells, 72 hours with compound, Alamar Blue readout; read-out: IC50
# Procedure: (§1) Initial screening of candidate compounds was performed using in vitro assays to determine potency, metabolic stability and solubility in biologically relevant fluids. Potency was assessed using a viability assay based on the survival of the J774 macrophage cell line. Macrophages are closely related to osteoclasts and have been used previously as a model system for osteoclast survival (see, e.g., Luckman et al., 1998). Like osteoclasts, J774 macrophages are dependent on continued NFκB activation for survival, thereby providing a valuable screen for compounds with anti-inflammatory activity. Metabolic stability was measured by determining the rate of disappearance of compound in the presence of human liver microsomal preparations, as quantified by LC-MS/MS. Solubility was measured by equilibration of the compound in fasted state simulated intestinal fluid (FaSSIF) and quantified by HPLC.
# In vitro potency as anti-inflammatory agents was determined for a number of APSAC compounds by incubation with J774 macrophages and subsequent determination of cell viability.
# J774 cells were plated at 10^4 cells per well in 100 μL αMEM (α Modified Eagle Medium) in 96-well plates and grown overnight. The next day, test compounds were added to the cultures, and cultures were continued for another 72 hours. At the end of the culture period, cell survival was determined using an Alamar Blue assay as previously described (see, e.g., Nociari et al., 1998).
# Alamar Blue is an oxidation-reduction sensitive indicator. The dye itself is in the oxidised state, which is blue and non-fluorescent. The dye can accept electrons from reducing species, such as NADPH and FADH, to form a reduced dye species, which is red and fluorescent. Thus the transformation from oxidised form to reduced form can be measured by fluorimetric or colourimetric means. For fluorescence measurements, 530-560 nm excitation and 590 nm emission wavelengths are typically used. For colourimetric measurements, absorbance at 570 nm (reduced form) and 600 nm (oxidised form) is typically measured. A simple calculation is performed to determine the relative quantities of the two species.
# A high ratio of the reducing species, NADPH and FADH, to the corresponding oxidised species, NADP and FAD, is an indicator that cells are proliferating and viable. A low ratio indicates cells that are quiescent or non-viable.
# Briefly, Alamar Blue (Biosource International) was added undiluted to the each well (1:10 v/v, 10 μL). The plate was incubated at 37° C. for 3-4 hours and the fluorescence was measured at 590 nm, with a 25 nm bandwidth. A high reading indicated cells with normal viability, and a low reading indicated cells that have been damaged and are no longer proliferating normally. The controls gave a high fluorescence reading, indicating a high number of live, healthy cells. A potent test compound gave a low fluorescence reading. The average results for each test compound (n=5) were expressed as a percent (%) of the average control value.
# Addition of Compounds. All of the compounds studied were made up as 100 mM solutions in DMSO. These stock solutions were then diluted 1000-10000× in culture medium (αMEM). From these 100 μM or 10 μM solutions, convenient quantities (3-33 μL) were added directly to the wells so as to give the desired final compound concentration.
# [2] = Human liver microsomal stability assay; type: in vitro ADME; settings: pooled human liver microsomes 0.5 mg/mL, 3 μM compound, NADPH, 45 minute incubation; for half-life at 3 µM: both sexes, pH 7.4
# Procedure: as §1, with “Macrophages are closely related to osteoclasts and have been used previously as a model system for osteoclast survival (see, e.g., Luckman et al., 1998).” left out
# Metabolic stability of APSAC derivatives was measured by determination of the rate of compound disappearance when incubated in the presence of human liver microsomes. Liver microsomes are prepared from the endoplasmic reticulum of hepatocytes and are the primary source of the most important enzymes (cytochrome P450) involved in drug metabolism. Study of drug stability in the presence of liver microsomes is accepted as a valuable model permitting rapid prediction of in vivo drug stability.
# Human liver microsomes were obtained from a commercial source. Test compounds (3 μM) were incubated with pooled liver microsomes (male and female). Samples were incubated for a 45 minute period and removed at 5 time points and test compounds were analysed by LC-MS/MS.
# The final incubation volume was 25 μL. A control incubation was included for each compound tested, where 0.1 M phosphate buffer pH 7.4 was added instead of NADPH. The control compounds testosterone and 7-hydroxycoumarin were included in each experiment and all incubations were performed singularly for each compound.
# Each compound was incubated for 0, 5, 15, 30, and 45 minutes. The control (minus NADPH) was incubated for 45 minutes only. […] The incubation plates were centrifuged at 2500 rpm for 20 minutes at 4° C. to precipitate the protein.
# Following protein precipitation, the sample supernatants were combined in cassettes of up to 4 compounds and analysed using standard LC-MS/MS conditions.
# From a plot of the natural logarithm of the peak area ratio (i.e., the ratio of compound peak area:internal standard peak area) against time, the gradient of the line was determined. Subsequently, half-life and intrinsic clearance were calculated using the equations below: Eliminated rate constant (k)=(−gradient). […] Pharmacokinetics Studies
# [3] = Thermodynamic aqueous solubility in fasted state simulated intestinal fluid (FaSSIF); type: physicochemical; settings: pH 6.5, thermodynamic from solid, equilibrated at 25° C. for 24 hours, HPLC
# Procedure: as §1, with “Macrophages are closely related to osteoclasts and have been used previously as a model system for osteoclast survival (see, e.g., Luckman et al., 1998).” left out
# Thermodynamic aqueous solubility was measured by equilibration of a number of APSAC compounds, in the solid state, with fasted state simulated intestinal fluid (FaSSIF) and quantified by HPLC. Measurement of solubility in FaSSIF provides a valuable model for the prediction of drug dissolution following oral administration.
# The pH was adjusted to 6.5 using 1 M NaOH solution.
# 0.6 mL of a solution containing 100 mg/mL lecithin in methylene chloride was added. The methylene chloride was eliminated under vacuum at about 40° C. The vacuum was drawn for 15 minutes at 250 mbar, followed by 15 minutes at 100 mbar. […] After cooling to room temperature, the solution was then adjusted to 100 mL with blank FaSSIF.
# The suspension was equilibrated at 25° C. for 24 hours, and then the pH was measured. The suspension was then filtered through a glass fibre C filter into a 96-well plate. The filtrate was then diluted by a factor of 100. Quantification was made by HPLC with reference to a standard solution of compound at approximately 0.1 mg/mL in DMSO. Different volumes of the standard, diluted and undiluted sample solutions were injected. […] Analysis was performed on an Agilent HP1100 series system equipped with a diode array detector and using ChemStation software vB.02.01-SR1.
# [4] = test system: caspase 3; assay: Caspase induction study (Nucview488 fluorogenic substrate) in the presence of TNFα; type: cell-based; settings: human monocytes, 10 μM test compound, 10 ng/mL TNFα, Nucview488 stain
# Procedure: The ability to activate caspase 3 was studied using a fluorogenic enzyme substrate assay.
# Briefly, human primary monocytes were isolated from whole blood using Ficoll gradients. The resulting cells were plated into microwell plates for 24 hours after which non-adherent cells were removed by washing. Cells were differentiated in the presence of 100 ng/mL MCSF. Cells were pre-treated with 10 μM test compound for 1 hour prior to stimulation with 10 ng/mL TNFα. Caspase 3 activation as an indicator of apoptosis was detected using the Nucview488 stain, which was added one hour prior to visualisation. The Nucview488 stain indicates the activation of caspase 3 (CPP32, apopain, YAMA), a cysteine peptidase which plays a key role in the induction of apoptosis in individual whole mammalian cells. Essentially, Nucview488 consists of a fluorogenic DNA dye and a DEVD substrate moiety specific for caspase 3. In itself, Nucview488 is nonfluorescent. However, upon entering the cell cytoplasm, Nucview488 is cleaved by caspase 3 to form a high-affinity DNA dye. The released DNA dye migrates to the cell nucleus to stain the nucleus bright green. This fluorescent staining produced in response to caspase 3 activity is monitored using fluorescent light microscopy.
Structure (SMILES),IC50 [1] [nM],half-life at 3 µM [2] [min],solubility at 24 h [3] [µg/mL],caspase 3 activation (fluorescence detected by light microscopy) [4],T1/2 [2]
"O=S(=O)(N[C@@H]1CCC[C@@H]1CO)c1ccc(-c2ccc(F)cc2F)cc1 (relative stereo) [ABD769, 2′,4′-Difluoro-N-(cis-2-(hydroxymethyl)cyclopentyl)biphenyl-4-sulfonamide]",4590,42,70,–,–
"O=S(=O)(N[C@H]1CC[C@H](O)CC1)c1ccc(-c2ccc(F)cc2F)cc1 [ABD599, 2′,4′-Difluoro-N-(trans-4-hydroxycyclohexyl)biphenyl-4-sulfonamide]",70,287,30,significant activation of caspase 3,–
"O=S(=O)(N[C@H]1CC[C@H](O)CC1)c1ccc(-c2ccc(Cl)cc2F)cc1 [ABD655, 4′-Chloro,2′-fluoro-N-(trans-4-hydroxycyclohexyl)biphenyl-4-sulfonamide]",180,228,30,–,–
"O=S(=O)(NC1CCC(CO)CC1)c1ccc(-c2ccc(F)cc2F)cc1 (stereo not drawn) [ABD776, 2′,4′-Difluoro-N-(4-(trans-hydroxymethyl)cyclohexyl)biphenyl-4-sulfonamide]",800,137,82,–,–
"O=S(=O)(N[C@H]1CC[C@@H](O)CC1)c1ccc(-c2ccc(F)cc2F)cc1 [ABD777, 2′,4′-Difluoro-N-(cis-4-hydroxycyclohexyl)biphenyl-4-sulfonamide]",1900,69,60,–,–
"O=C1CCC(NS(=O)(=O)c2ccc(-c3ccc(F)cc3F)cc2)CC1 [ABD786, 2′,4′-Difluoro-N-(4-oxocyclohexyl)biphenyl-4-sulfonamide]",280,12,32,–,–
NC1CCC(NS(=O)(=O)c2ccc(-c3ccc(F)cc3F)cc2)CC1 (stereo not shown) [ABD787],3550,–,140,–,Stable
"CC(C)(O)[C@H]1CC[C@H](NS(=O)(=O)c2ccc(-c3ccc(F)cc3F)cc2)CC1 [ABD794, 2′,4′-Difluoro-N-(trans-4-(2-hydroxypropan-2-yl)cyclohexyl)biphenyl-4-sulfonamide]",2100,–,12,–,Stable
"CC(C)(O)[C@H]1CC[C@@H](NS(=O)(=O)c2ccc(-c3ccc(F)cc3F)cc2)CC1 [ABD795, 2′,4′-Difluoro-N-(cis-4-(2-hydroxypropan-2-yl)cyclohexyl)biphenyl-4-sulfonamide]",2700,15,50,–,–
"CC(C)(O)[C@@H]1CC[C@H](NS(=O)(=O)c2ccc(-c3ccc(F)cc3F)cc2)C1 [ABD796, 2′,4′-Difluoro-N-((1S,3R)-3-(2-hydroxypropan-2-yl)cyclopentyl)biphenyl-4-sulfonamide]",< 300,54,200,–,–
"CN(C)[C@H]1CC[C@@H](NS(=O)(=O)c2ccc(-c3ccc(F)cc3F)cc2)CC1 [ABD798, N-(cis-4-(Dimethylamino)cyclohexyl)-2′,4′-difluorobiphenyl-4-sulfonamide]",600,–,4700,–,Stable
"CN(C)[C@H]1CC[C@H](NS(=O)(=O)c2ccc(-c3ccc(F)cc3F)cc2)CC1 [ABD799, N-(trans-4-(Dimethylamino)cyclohexyl)-2′,4′-difluorobiphenyl-4-sulfonamide]",400,–,7200,–,Stable
"N[C@H]1CC[C@@H](NS(=O)(=O)c2ccc(-c3ccc(F)cc3F)cc2)CC1 [ABD812, N-(cis-4-Aminocyclohexyl)-2′,4′-difluorobiphenyl-4-sulfonamide]",7600,585,980,–,–
"O=S(=O)(N[C@H]1CC[C@H](CO)C1)c1ccc(-c2ccc(F)cc2F)cc1 [ABD813, 2′,4′-Difluoro-N-((1S,3S)-3-(hydroxymethyl)cyclopentyl)biphenyl-4-sulfonamide]",570,45.4,330,–,–
"CC(C)(O)[C@H]1CC[C@H](NS(=O)(=O)c2ccc(-c3ccc(F)cc3F)cc2)C1 [ABD815, 2′,4′-Difluoro-N-((1S,3S)-3-(2-hydroxypropan-2yl)cyclopentyl) biphenyl-4-sulfonamide]",< 300,13.2,250,–,–
